This data set can be described thus: in vivo. To be noted: female, athymic nude, mouse, liver, iv, 3.7 MBq (100 uCi), total radioactivity.

For `N=C(N)NCCC[C@@H]1NC(=O)[C@H](CSC2CC(=O)N(CCNC(=O)CCCC(=O)Nc3ccc(C4=NNC(c5ccccn5)=C5CCC(OCCF)CCCC45)nc3)C2=O)NC(=O)[C@@H](Cc2ccc(O)cc2)NC(=O)[C@H](CC(=O)O)NC(=O)CNC1=O` (stereo partly shown) [^18F-TTM-RGD], the tissue uptake at 2 h amounted to 2.35 ± 0.24 %ID/g.

Broadly, the tissue uptake is the percentage of the injected dose found per gram of tissue.
